Measured values published in patent US8242151B2, “Tricyclic compounds” (Kyowa Hakko Kirin Co., Ltd., priority 2007, dated 2012).

Legend:
[1] = molecular target: T1, GAL4-PPARγ chimeric nuclear receptor (human PPARγ ligand binding region) (Homo sapiens, UniProt P37231); test: Transactivation assay of PPARγ by transient gene transfer (GAL4-PPARγ luciferase reporter); format: cell-based; details: HEK293EBNA cells, 24 hr; concentration showing 50% of efficacy; activity relative to pioglitazone 10 μmol/L = 100%
T1 construct: expressed in transfected cells; host or cells: HEK293EBNA cells
T1 sequence (P37231 174-475 isoform P37231-2): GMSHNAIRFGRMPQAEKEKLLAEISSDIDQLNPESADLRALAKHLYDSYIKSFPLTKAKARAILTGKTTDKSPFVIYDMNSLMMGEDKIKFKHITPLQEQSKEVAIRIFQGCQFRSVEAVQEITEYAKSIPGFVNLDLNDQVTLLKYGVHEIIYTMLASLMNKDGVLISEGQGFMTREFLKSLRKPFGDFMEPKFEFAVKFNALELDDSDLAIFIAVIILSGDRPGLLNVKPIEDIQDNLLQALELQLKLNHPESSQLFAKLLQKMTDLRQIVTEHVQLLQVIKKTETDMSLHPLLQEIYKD
Protocol: The agonist activity of compound (I) to PPARγ was determined by a transactivation assay method using a chimeric nuclear receptor of a DNA binding region of a yeast transcription factor GAL4 and a PPARγ ligand binding region. Specifically, the PPARγ agonist activity of compound (I) was evaluated by the following method based on the method of Lehmann et al. (J Biol. Chem., 1995, vol. 270, page 12953).
HEK293EBNA cells cultured in Dulbecco's Modified Eagle medium (Invitrogen) containing 10 v/v % fetal calf serum (Invitrogen) were used. 30 mL of the above-mentioned cells (density: 1×10^5 cells/mL) were inoculated in a […] culture dish (Iwaki Glass), and cultured overnight. Using SuperFect Transfection Reagent (QIAGEN), a plasmid expressing a GAL4-PPARγ chimeric nuclear receptor fusing 174-475 amino acids, which are human PPARγ ligand binding region, and 1-147 amino acids, which are GAL4 DNA binding region, and a reporter plasmid expressing a GAL4 responsive luciferase were transiently introduced into the cells at a proportion of 4:1. After 5 hr from gene introduction, the cells were detached from the culture dish, and the detached cells (density: 2×10^4 cells/mL) were inoculated by 100 μL in each well of a 96 well white plate (SUMITOMO BAKELITE), and cultured overnight. The medium was removed, compound (I) diluted in various concentrations with serum-free Dulbecco's Modified Eagle medium was added by 100 μL, and the mixture was reacted under a 5% carbon dioxide gas stream (5% CO2) at 37° C. for 24 hr. On the other hand, as a positive control, 10 μmol/L of pioglitazone (100 μL) was added, and the mixture was reacted under a 5% carbon dioxide gas stream (5% CO2) at 37° C. for 24 hr. As a substrate of luciferase, 100 μL of Steady-Glo (Promega) was added to each well and the mixture was thoroughly stirred. Immediately thereafter, the chemical luminescence due to luciferase was measured using TopCount NTX (Packard).
The agonist activity (activity rate (%)) of compound (I) to PPARγ was calculated according to the following formula, as a relative activity when the agonist activity on addition of pioglitazone (10 μmol/L) was 100%.

[2] = tested on: spontaneously hypertensive rats (SHR); test: Antihypertensive action by telemetry method; format: in vivo, rat; details: oral once a day for 4 days, 24 hr averages
Excerpt: A telemetry transmitter was indwelled in the abdominal artery of spontaneously hypertensive rats (SHR), and the blood pressure and heart rate were monitored. The rats were acclimated and reared for 4 weeks or more, and only the rats with hypertension were used for the test. Before drug administration, the rats were grouped such that the blood pressure and heart rate of each rat would be of the same levels between the groups. A solvent (0.5% methylcellulose solution) and a test compound were repeatedly administered orally once a day for 4 days. The average systolic blood pressure for 24 hr, average diastolic blood pressure for 24 hr and average heart rate for 24 hr were calculated on each administration day.

[3] = tested on: spontaneously hypertensive rats (SHR); test: Antihypertensive action by tail cuff method; format: in vivo, rat; details: oral once a day for 7 days, about 4 to 9 hr after final administration
Protocol: 18- to 22-week-old spontaneously hypertensive rats (SHR) were used.
Before drug administration, the body weight, blood pressure and heart rate of each rat were measured, and the rats were grouped such that these values are almost the same between groups. A solvent (0.5% methylcellulose solution) and a test compound were repeatedly administered orally once a day for 7 days. At about 4 to 9 hr after the final administration, systolic blood pressure and heart rate were non-invasively measured according to the following.
The rats were placed in a cylindrical restrainer, heated to 37° C., and blood pressure and heart rate were measured under resting state using a Tail Cuff Method. For the measurement, a non-invasive blood pressure measurement apparatus (PS-600, Riken Kaihatsu, Tokyo) was used. The blood pressure and heart rate of each rat was measured 5 times, and the average was taken as the value of each rat.

SMILES	EC50 [1] [µM]	antihypertensive action (blood pressure, telemetry) [2]	antihypertensive action (systolic blood pressure, tail cuff) [3]
CCc1nc2c(C)ccnc2n1Cc1ccc2c(c1)CCc1ccccc1/C2=C(/C)c1nnn[nH]1 [Compound 47, (E)-2-(2-ethyl-7-methyl-3H-imidazo[4,5-b]pyridin-3-yl)methyl-5-[1-(1H-tetrazol-5-yl)ethylidene]-10,11-dihydro-5H-dibenzo[a,d]cycloheptene]	1.93	antihypertensive action	antihypertensive action
C/C(=C1/c2ccccc2CCc2cc(Cn3c(C4CC4)nc4c(Cl)ccnc43)ccc21)c1noc(=O)[nH]1 [Compound 95, (E)-2-(7-chloro-2-cyclopropyl-3H-imidazo[4,5-b]pyridin-3-yl)methyl-5-[1-(5-oxo-4,5-dihydro-1,2,4-oxadiazol-3-yl)ethylidene]-10,11-dihydro-5H-dibenzo[a,d]cycloheptene]	0.527	antihypertensive action	antihypertensive action
CCc1nc2c(Cl)ccnc2n1Cc1ccc2c(c1)COc1ccccc1/C2=C(/C)c1noc(=O)[nH]1 [Compound 137, (Z)-8-(7-chloro-2-ethyl-3H-imidazo[4,5-b]pyridin-3-yl)methyl-11-[1-(5-oxo-4,5-dihydro-1,2,4-oxadiazol-3-yl)ethylidene]-6,11-dihydrodibenzo[b,e]oxepine]	1.84	antihypertensive action	antihypertensive action
CCc1nc2c(C)cc(C)nc2n1Cc1ccc2c(c1)CCc1ccccc1N2Cc1nnn[nH]1 [Compound S13, 2-(2-ethyl-5,7-dimethyl-3H-imidazo[4,5-b]pyridin-3-yl)methyl-5-(1H-tetrazol-5-yl)methyl-10,11-dihydro-5H-dibenzo[b,f]azepine]	4.56	antihypertensive action	antihypertensive action
